Results as given in paper PMC5484114 (Marine Drugs, 2017).
Where a SMILES comes first, the peptide text is derived from it. Bridges are numbered along the chain shown (N, C = ends). Roman numbers before positions name the chains, in order.

Legend:
[1] = molecular target: hα9α10 nAChR (Homo sapiens, UniProt Q9GZZ6+Q9UGM1); test: cell-based; format: cell-based
[2] = test system: hα3β2 nAChR; format: cell-based, human
[3] = test system: hα4β2 nAChR; format: cell-based, human
[4] = test system: hα3β4 nAChR; format: cell-based, human
[5] = test system: hα4β4 nAChR; format: cell-based, human
[6] = test system: hα7 nAChR; format: cell-based, human
[7] = test system: nAChR subtypes; format: cell-based, human; rodent

Sequence of hα9α10 nAChR (Q9UGM1 26-479 limits assumed): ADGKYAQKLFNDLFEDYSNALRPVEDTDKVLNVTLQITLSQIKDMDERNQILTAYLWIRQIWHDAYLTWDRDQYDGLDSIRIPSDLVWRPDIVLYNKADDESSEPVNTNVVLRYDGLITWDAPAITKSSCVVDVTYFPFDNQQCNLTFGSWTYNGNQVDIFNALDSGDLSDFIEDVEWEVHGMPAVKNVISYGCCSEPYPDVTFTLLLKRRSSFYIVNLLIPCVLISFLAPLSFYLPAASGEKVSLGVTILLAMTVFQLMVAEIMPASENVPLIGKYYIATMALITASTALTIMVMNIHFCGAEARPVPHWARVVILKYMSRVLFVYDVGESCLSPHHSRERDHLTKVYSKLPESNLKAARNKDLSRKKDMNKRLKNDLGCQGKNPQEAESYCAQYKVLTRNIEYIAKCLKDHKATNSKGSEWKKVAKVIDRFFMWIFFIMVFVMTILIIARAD
Sequence of hα9α10 nAChR (Q9GZZ6 25-450 limits assumed): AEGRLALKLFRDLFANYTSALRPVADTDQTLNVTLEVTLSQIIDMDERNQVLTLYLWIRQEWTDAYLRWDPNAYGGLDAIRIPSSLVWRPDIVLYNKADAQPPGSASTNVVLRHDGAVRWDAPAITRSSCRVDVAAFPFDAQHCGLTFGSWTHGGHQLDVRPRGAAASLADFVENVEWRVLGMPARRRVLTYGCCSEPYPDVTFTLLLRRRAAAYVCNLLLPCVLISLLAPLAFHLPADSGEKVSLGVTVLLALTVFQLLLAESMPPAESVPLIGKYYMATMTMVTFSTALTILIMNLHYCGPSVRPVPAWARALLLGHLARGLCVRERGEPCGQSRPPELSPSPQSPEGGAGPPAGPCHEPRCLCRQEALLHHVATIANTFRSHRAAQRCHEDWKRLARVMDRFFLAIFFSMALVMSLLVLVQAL

Compound | Hill Slope (nH) at hα9α10 [1] | reduction of ACh-evoked current amplitude at hα3β2 [2] | reduction of ACh-evoked current amplitude at hα4β2 [3] | effect on ACh-evoked currents of hα3β4 [4] | effect on ACh-evoked currents of hα4β4 [5] | effect on ACh-evoked currents of hα7 [6] | nAChR subtype preference [7] | IC50 [1]
CC(C)C[C@H](NC(=O)[C@H](CO)NC(=O)[C@@H]1CSSC[C@H](NC(=O)[C@@H]2CCCN2C(=O)[C@H](CCCNC(=N)N)NC(=O)[C@H](Cc2c[nH]cn2)NC(=O)[C@@H](NC(=O)[C@@H](N)CC(=O)O)C(C)C)C(=O)N[C@@H](CCC(N)=O)C(=O)N[C@@H](CO)C(=O)N[C@@H](C(C)C)C(=O)N[C@@H](CCCNC(=N)N)C(=O)N2CCC[C@H]2C(=O)NCC(=O)N[C@@H](CCCNC(=N)N)C(=O)N[C@@H](C(C)C)C(=O)N[C@@H](Cc2c[nH]c3ccccc23)C(=O)NCC(=O)N[C@@H](CCCCN)C(=O)N[C@H](C(=O)N[C@@H](CO)C(=O)N[C@@H](CC(C)C)C(=O)O)CSSC[C@H](NC(=O)[C@@H]2CCCN2C(=O)[C@H](CCCNC(=N)N)NC(=O)[C@H](Cc2c[nH]cn2)NC(=O)[C@@H](NC(=O)[C@@H](N)CC(=O)O)C(C)C)C(=O)N[C@@H](CCC(N)=O)C(=O)N[C@@H](CO)C(=O)N[C@@H](C(C)C)C(=O)N[C@@H](CCCNC(=N)N)C(=O)N2CCC[C@H]2C(=O)NCC(=O)N[C@@H](CCCNC(=N)N)C(=O)N[C@@H](C(C)C)C(=O)N[C@@H](Cc2c[nH]c3ccccc23)C(=O)NCC(=O)N[C@@H](CCCCN)C(=O)N1)C(=O)O [NTD] (I: H-DVHRPCQSVRPGRVWGKCSL-OH / II: H-DVHRPCQSVRPGRVWGKCSL-OH; disulfide I:6-II:18, I:18-II:6) | −0.9 | approximately 50% | approximately 50% | not markedly affected | not markedly affected | not markedly affected | prefers β2-containing rather than β4-containing nAChR subtypes | 
CC(C)[C@@H]1NC(=O)[C@H](CCCNC(=N)N)NC(=O)CNC(=O)[C@@H]2CCCN2C(=O)[C@H](CCCNC(=N)N)NC(=O)[C@H](C(C)C)NC(=O)[C@H](CO)NC(=O)[C@H](CCC(N)=O)NC(=O)[C@@H](N)CSSC[C@@H](C(=O)O)NC(=O)[C@H](CCCCN)NC(=O)CNC(=O)[C@H](Cc2c[nH]c3ccccc23)NC(=O)[C@H](C(C)C)NC(=O)[C@H](CCCNC(=N)N)NC(=O)CNC(=O)[C@@H]2CCCN2C(=O)[C@H](CCCNC(=N)N)NC(=O)[C@H](C(C)C)NC(=O)[C@H](CO)NC(=O)[C@H](CCC(N)=O)NC(=O)[C@@H]2CCCN2C(=O)CNC(=O)[C@@H]2CCCN2C(=O)[C@H](CCCCN)NC(=O)CNC(=O)[C@H](Cc2c[nH]c3ccccc23)NC1=O [cNTD] (H-CQSVRPGRVWGKPGPQSVRPGRVWGKC-OH; disulfide 1-27) |  |  |  |  |  |  |  | 2.66 µM
